“And” between values parts separate entries of the source, which are not always exact repeats. Identical values can stand only once. Counter-ions that a name gives are not always drawn.
Columns and labels:
[1] = tested on: women whose ovulation is irregular or absent; conditions: cited from earlier work
[2] = Glycemia study (blood glucose after 6 hours of fasting, glucose sensor); type: in vivo, mouse; conditions: for glycemia, Average: average of 6 IRS2−/− female mice; for variation in glycemia during administration: first 12 days of treatment, IRS2−/− female mice; for variation in glycemia during administration / glycemia: dihydrate; for glycemia: individual IRS2−/− female mice
Method: (§1) 6 IRS2^−/− female mice of ages comprised between 6 and 8 weeks.
(§2) The female mice were housed in normal conditions, i.e., 12-hour light/darkness cycle and controlled moisture and temperature. The animals were voluntarily fed (also named ad libitum) with a standard feed diet.
(§3) After a period of acclimation, sodium tungstate was administered in the drinking water (ad libitum) by means of a 2 mg/ml solution of sodium tungstate dihydrate (marketed by Carlo Erba) in distilled water after the pre-treatment phase (day 0 of treatment) and for 12 days.
(§4) Body weight was monitored on day 0, 2, 5, 7, 9 and 12 of the treatment period, and after 6 hours of fasting on each of the aforementioned days blood glucose was determined by means of withdrawing blood from the tail vein and with a glucose sensor (Roche AccuTrend Glucose Sensor. Mannheim, Germany).

IRS2−/− female mice [3] = assay: Implantation and pregnancy study after mating with IRS2wt male mice; type: in vivo, mouse; conditions: for mean number of young/implanted embryos per female mouse pregnancy: treated IRS2−/− female mice
Text: (§5) 10 IRS2^−/− female mice of ages comprised between 6 and 8 weeks. 6 “wild-type” (IRS2^wt) male mice of ages comprised between 6 and 8 weeks.
(§6) The female and male mice were housed separately in normal conditions, i.e., 12-hour light/darkness cycle and controlled moisture and temperature. The animals were voluntarily fed (also named ad libitum) with a standard feed diet.
(§7) After a period of acclimation, the IRS2^−/− female mice were housed in groups of 4-6 mice/cage. Tungstate-free drinking water was administered to the animals during the pre-treatment phase (2 weeks).
(§8) Sodium tungstate was administered in the drinking water (ad libitum) by means of a 2 mg/ml solution of sodium tungstate dihydrate (marketed by Carlo Erba) in distilled water after the pre-treatment phase (day 0 of treatment) and up to 4 weeks before sacrificing the animals. The daily dose of sodium tungstate ingested by the mice is about 180 mg/kg of body weight.
After the first three weeks of treatment, the IRS2^−/− female mice were housed in cages in pairs together with an IRS2^wt male mouse continuously.
The mice were observed daily in search of signs of pregnancy or birth. After 4 weeks, the male mice were exchanged between the cages and kept in said cages for another 4 weeks.
The administration of tungstate was maintained for the 8 weeks in which the male and female mice were housed together. After these 8 weeks, treatment was withdrawn and the male and female mice were housed together for 4 additional weeks.
After this period lapsed, the female mice were sacrificed and biopsied in search of indications of pregnancy.
After the mating period of the method in section B lapsed, the female mice were sacrificed and biopsied in search of indications of pregnancy.

[4] = tested on: female rats with streptozotocin-induced diabetes; conditions: cited from earlier work
Body weight study = type: in vivo, mouse; conditions: for Body weight, Average: average of 6 IRS2−/− female mice; for variation in body weight during administration: first 12 days of treatment, IRS2−/− female mice; for variation in body weight during administration / Body weight: dihydrate; for Body weight: individual IRS2−/− female mice
Method: as §1, §2, §3, §4

IRS2−/− female mice [5] = assay: Ovulation study: phase of the estrous cycle by vaginal smears (Papanicolaou); type: in vivo, mouse; design: key to phase of the estrous cycle: A: anestrus; D: diestrus; P: proestrus; E: estrus; M: metestrus; conditions: for phase of the estrous cycle: individual IRS2−/− female mice, dihydrate
Text: as §5, §6, §7, §8
During the pre-treatment period and during the first 3 weeks of treatment, vaginal smears were performed in 6 randomly chosen female mice on days −8; −5; −2; −1; 7; 8; 14; 15 and 22 to determine the phase of the estrous cycle they were in.
Between […] of saline solution was introduced into the vagina of the mice with a Pasteur pipette. The vaginal exudate was collected with the same pipette and deposited on a slide. Once air-dried, it was fixed and stained with the Papanicolaou technique.
The Papanicolaou technique comprises staining the vaginal smears fixed on the slide as follows: • 10 immersions in 50% v/v alcohol; • immersing in Harris hematoxylin solution for 3 minutes; • rinsing with running water; • 10 immersions in acid alcohol (1% hydrochloric acid); • rinsing with running water; • 10 immersions in 95% v/v alcohol; • immersing in OG-6 solution for 30 seconds; • 10 immersions in 96% v/v alcohol; • immersing in eosin solution for 1 minute; • 10 immersions in 96% v/v alcohol; • 10 immersions in 86% v/v alcohol; and • 10 immersions in xylol.
The preparations were analyzed by trained staff using a code in a single-blind manner to eliminate observer bias.
The samples were identified in the following phases: diestrus, proestrus, estrus, metestrus, anestrus or non-evaluable. The cyclicality of the four phases in periods of 4 to 6 days is an indicator of a normal estrous cycle, whereas the absence of this cyclicality and the persistence in anestrus, diestrus or proestrus phases are indicators of the absence of the estrous cycle.

[6] = individual treated IRS2−/− female mice, dihydrate

CCN(CC)CCOc1ccc(C(=C(Cl)c2ccccc2)c2ccccc2)cc1 [clomiphene citrate]
pregnancy rate [1]: ≤ 50% | restoring ovulation [1]: high percentage

O.O.[Na+].[Na+].[O]=[W](=[O])([O-])[O-] [sodium tungstate, sodium tungstate dihydrate]
glycemia, Average ([2]; Day 0 (start of treatment)): 128.17 mg/dL | glycemia, Average ([2]; Day 2): 117.33 mg/dL | glycemia, Average ([2]; Day 5): 122.33 mg/dL | glycemia, Average ([2]; Day 7): 118.83 mg/dL | glycemia, Average ([2]; Day 9): 125.17 mg/dL | glycemia, Average ([2]; Day 12): 118.83 mg/dL | variation in glycemia during administration [2]: no variations are observed | variation in glycemia during administration ([2]; listed as tungsten (VI) salt): does not modify | glycemia ([2]; Day 0 (start of treatment), 6 h fasting): 146 mg/dL and 129 mg/dL and 115 mg/dL and 126 mg/dL and 141 mg/dL and 112 mg/dL | glycemia ([2]; Day 2, 6 h fasting): 136 mg/dL and 128 mg/dL and 118 mg/dL and 110 mg/dL and 105 mg/dL and 107 mg/dL | glycemia ([2]; Day 5, 6 h fasting): 125 mg/dL and 142 mg/dL and 114 mg/dL and 111 mg/dL and 137 mg/dL and 105 mg/dL | glycemia ([2]; Day 7, 6 h fasting): 140 mg/dL and 110 mg/dL and 106 mg/dL and 89 mg/dL and 133 mg/dL and 135 mg/dL | glycemia ([2]; Day 9, 6 h fasting): 125 mg/dl (2×) and 153 mg/dl and 109 mg/dl and 108 mg/dl and 131 mg/dl | glycemia ([2]; Day 12, 6 h fasting): 136 mg/dL and 116 mg/dL and 111 mg/dL and 86 mg/dL and 123 mg/dL and 141 mg/dL | Pregnancy (IRS2−/− female mice [3]; individual treated IRS2−/− female mice, mated with IRS2wt males, dihydrate): YES | Number of implanted embryos or young born (embryos) (IRS2−/− female mice [3]; [6]): 7 embryos (3×) and 6 embryos | Number of implanted embryos or young born (young) (IRS2−/− female mice [3]; [6]): 8 young (2×) and 1 young and 3 young | pregnancy rate (IRS2−/− female mice [3]; treated IRS2−/− female mice (untreated 9%)): 80% | mean number of young/implanted embryos per female mouse pregnancy (IRS2−/− female mice [3]; dihydrate): about 5 | mean number of young/implanted embryos per female mouse pregnancy (IRS2−/− female mice [3]; listed as tungsten (VI) salt, dihydrate): 5 | circulating insulin levels ([4]; rats with streptozotocin-induced insulinopenia and diabetes, prolonged treatment (10 weeks)): partially recover | percentage of births with respect to the number of positive curettages ([4]; streptozotocin-diabetic females after 10 weeks of treatment, mated with healthy males (non-diabetic 100%)): 66% | Body weight, Average (Body weight study; Day 0 (start of treatment)): 17.03 g | Body weight, Average (Body weight study; Day 2): 17.33 g | Body weight, Average (Body weight study; Day 5): 16.97 g | Body weight, Average (Body weight study; Day 7): 16.84 g | Body weight, Average (Body weight study; Day 9): 17.35 g | Body weight, Average (Body weight study; Day 12): 17.72 g | variation in body weight during administration (Body weight study): no variations are observed | variation in body weight during administration (Body weight study; listed as tungsten (VI) salt): does not modify | Body weight (Body weight study; Day 0 (start of treatment)): 22.7 g and 15.33 g and 18.21 g and 16.5 g and 13.99 g and 15.45 g | Body weight (Body weight study; Day 2): 22.9 g and 14.84 g and 18.98 g and 17.01 g and 14.18 g and 16.04 g | Body weight (Body weight study; Day 5): 22.61 g and 14.89 g and 18.2 g and 16.61 g and 13.79 g and 15.72 g | Body weight (Body weight study; Day 7): 22.42 g and 15.07 g and 17.81 g and 16.35 g and 13.74 g and 15.66 g | Body weight (Body weight study; Day 9): 22.85 g and 15.56 g and 17.9 g and 16.89 g and 14.5 g and 16.39 g | Body weight (Body weight study; Day 12): 23.15 g and 15.91 g and 18.24 g and 17.19 g and 14.92 g and 16.89 g | phase of the estrous cycle (IRS2−/− female mice [5]; day 7 of treatment, 2 mg/ml in drinking water (about 180 mg/kg/day)): M and E (4×) and E-M | phase of the estrous cycle (IRS2−/− female mice [5]; day 8 of treatment, 2 mg/ml in drinking water): M and E-M (3×) and E (2×) | phase of the estrous cycle (IRS2−/− female mice [5]; day 14 of treatment, 2 mg/ml in drinking water): E and E-M (3×) and D | phase of the estrous cycle (IRS2−/− female mice [5]; day 15 of treatment, 2 mg/ml in drinking water): D and E (2×) and M (2×) and A | phase of the estrous cycle (IRS2−/− female mice [5]; day 22 of treatment, 2 mg/ml in drinking water): D (2×) and A (2×) and M and P | recovery of the estrous cycle, percentage of analyzed mice (IRS2−/− female mice [5]; infertile non-diabetic IRS2−/− female mice, on the seventh day of treatment): 100%

Reference: patent US9675638B2, “Use of tungsten (VI) salts for the treatment of female infertility in non-diabetic mammals” (OXOLIFE, S.L., priority 2013, dated 2017)
